For one assay, the system named is NFkB activity. Description: Glucocorticoid mediated transrepression of NFkB activity (A549 ELAM promoter alkaline phosphatase reporter, TNFα stimulated). The class given is cell-based. The note with it: A549 cells, 3 ng/ml human recombinant TNFα, 16 hours; read-out: pIC50 NFkB assay (converted). From the text:
Glucocorticoid mediated Transrepression of NFkB activity.
Human A549 lung epithelial cells were engineered to contain a secreted placental alkaline phosphatase gene under the control of the distal region of the NFkB dependent ELAM promoter as previously described in Ray, K. P., Farrow, S., Daly, M., Talabot, F. and Searle, N. “Induction of the E-selectin promoter by interleukin 1 and tumour necrosis factor alpha, and inhibition by glucocorticoids” Biochemical Journal. 1997 328 707-15.
Compounds were solvated and diluted in DMSO, and transferred directly into assay plates such that the final concentration of DMSO was 0.7%. Following the addition of cells (40K per well), plates were incubated for 1 hr prior to the addition of 3 ng/ml human recombinant TNFα. Following continued incubation for 16 hours, alkaline phosphatase activity was determined by measuring the change in optical density at 405 nm with time following the addition of 0.7 volumes of assay buffer (1 mg/ml p-nitrophenylphosphate dissolved in 1 M diethanolamine, 0.28M NaCl, 0.5 mM MgCl2).

The target of the next assay is T1, glucocorticoid receptor (Homo sapiens, UniProt P04150).
T1 construct: purchased Pan Vera (Madison, Wis., USA)
T1 sequence (P04150 1-777): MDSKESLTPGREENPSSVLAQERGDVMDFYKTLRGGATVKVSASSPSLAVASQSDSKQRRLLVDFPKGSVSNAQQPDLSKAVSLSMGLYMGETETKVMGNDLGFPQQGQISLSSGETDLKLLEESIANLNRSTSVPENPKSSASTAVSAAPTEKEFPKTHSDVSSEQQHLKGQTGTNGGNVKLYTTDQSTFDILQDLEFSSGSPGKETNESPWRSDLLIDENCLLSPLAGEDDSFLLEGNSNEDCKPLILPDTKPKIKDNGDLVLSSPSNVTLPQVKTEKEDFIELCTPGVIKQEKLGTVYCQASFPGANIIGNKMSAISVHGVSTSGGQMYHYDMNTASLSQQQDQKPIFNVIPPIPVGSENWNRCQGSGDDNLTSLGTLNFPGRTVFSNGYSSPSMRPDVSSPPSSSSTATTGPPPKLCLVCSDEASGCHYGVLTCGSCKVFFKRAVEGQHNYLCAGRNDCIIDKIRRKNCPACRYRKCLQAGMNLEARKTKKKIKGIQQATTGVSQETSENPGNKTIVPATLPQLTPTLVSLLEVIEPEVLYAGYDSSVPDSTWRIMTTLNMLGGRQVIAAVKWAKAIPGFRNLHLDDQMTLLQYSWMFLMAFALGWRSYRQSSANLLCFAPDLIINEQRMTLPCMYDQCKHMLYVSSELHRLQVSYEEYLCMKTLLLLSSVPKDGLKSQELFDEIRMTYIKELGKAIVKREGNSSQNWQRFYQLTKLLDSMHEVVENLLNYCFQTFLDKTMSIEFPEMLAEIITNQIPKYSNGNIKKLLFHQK
Put plainly: Glucocorticoid receptor binding assay (fluorescence polarisation competition). The note with it: displacement of fluorescent glucocorticoid, 22° C., 2 hours; read-out: pIC50 glucocorticoid receptor binding assay (converted). As to the method: Glucocorticoid Receptor Binding Assay
The ability of compounds to bind to the glucocorticoid receptor was determined by assessing their ability to compete with fluorescent-labelled glucocortioid using a kit supplied by Pan Vera (Madison, Wis., USA) or using in house reagents. Compounds were solvated and diluted in DMSO, and transferred directly into assay plates. Fluorescent glucocorticoid and partially purified glucocorticoid receptor with a stabilisation peptide were added to the plates and incubated at 22° C. for 2 hours in the dark. Binding of the compound was assessed by analysing the displacement of fluorescent ligand by measuring the decrease in fluorescence polarisation signal from the mixture.

Assay [1] concerns MMTV driven gene expression. Description: Glucocorticoid mediated transactivation of MMTV driven gene expression (luciferase reporter). The class given is cell-based, Human. The note with it: A549 or MG63 cells, 6 hr incubation. From the text: Glucocorticoid Mediated Transactivation of MMTV Driven Gene Expression
Human A549 lung epithelial cells or human MG63 osteosarcoma were engineered to contain a renialla luciferase gene under the control of the distal region of the LTR from the mouse mammary tumour virus as previously described (Austin, R. H., Maschera, B., Walker, A., Fairbairn, L., Meldrum, E., Farrow, S. and Uings, I. J. Mometasone furoate is a less specific glucocorticoid than fluticasone propionate. European Respiratory Journal 2002 20 1386-1392).
Compounds were solvated and diluted in DMSO, and transferred directly into assay plates such that the final concentration of DMSO was 0.7%. Following the addition of cells (40K per well), plates were incubated for 6 hr. Luciferase activity was determined using the Firelight kit (Packard, Pangbourne, UK).

In the case of `CC1(CC(O)(CNc2cccc3ncccc23)C(F)(F)F)CCCc2ccccc21` (single isomer, unassigned) [Example 1-D1E1, 1,1,1-Trifluoro-3-(1-methyl-1,2,3,4-tetrahydro-1-naphthalenyl)-2-[(5-guinolinylamino)methyl]-2-propanol], the IC50 in the assay on NFkB activity was under 31.6 nM; on glucocorticoid receptor, under 100 nM. Also, the “efficacy in the MMTV transactivation assay compared to the NFkB assay” value (from here on “efficacy … compared to the NFkB assay”) in assay [1] is given as “reduced efficacy”. On to `Cc1ccc2c(NCC(O)(CC3(C)CCCc4ccccc43)C(F)(F)F)cccc2n1` (single isomer, unassigned) [Example 2-D1, 1,1,1-Trifluoro-3-[(2-methyl-5-quinolinyl)amino]-2-[(1-methyl-1,2,3,4-tetrahydro-1-naphthalenyl)methyl]-2-propanol], for which the IC50 was under 31.6 nM in the assay with NFkB activity and under 100 nM on glucocorticoid receptor. For the same compound, the “efficacy … compared to the NFkB assay” value in assay [1] is given as “reduced efficacy”. In the case of `Cc1ccc2c(NCC(O)(CC3(C)CCCc4ccccc43)C(F)(F)F)cccc2n1` (single isomer, unassigned) [Example 2-D1E1, 1,1,1-Trifluoro-3-[(2-methyl-5-quinolinyl)amino]-2-[(1-methyl-1,2,3,4-tetrahydro-1-naphthalenyl)methyl]-2-propanol], the “efficacy … compared to the NFkB assay” value in assay [1] is on record as “reduced efficacy”. On to `Cc1ccc2c(NCC(O)(CC3(C)CCCc4ccccc43)C(F)(F)F)cccc2n1` (single isomer, unassigned) [Example 2-D2, 1,1,1-Trifluoro-3-[(2-methyl-5-quinolinyl)amino]-2-[(1-methyl-1,2,3,4-tetrahydro-1-naphthalenyl)methyl]-2-propanol], for which the “efficacy … compared to the NFkB assay” value in assay [1] is “reduced efficacy”. Same read-out and setting: next, `Cc1ccc2c(NCC(O)(CC3(C)CCCc4ccccc43)C(F)(F)F)cccc2n1` (single isomer, unassigned) [Example 2-D2E1, 1,1,1-Trifluoro-3-[(2-methyl-5-quinolinyl)amino]-2-[(1-methyl-1,2,3,4-tetrahydro-1-naphthalenyl)methyl]-2-propanol]: “reduced efficacy”. The same measure, in the same setting: next, `Cc1ccc2c(NCC(O)(CC3(C)CCCc4ccccc43)C(F)(F)F)cccc2n1` (single isomer, unassigned) [Example 2-D2E2, 1,1,1-Trifluoro-3-[(2-methyl-5-quinolinyl)amino]-2-[(1-methyl-1,2,3,4-tetrahydro-1-naphthalenyl)methyl]-2-propanol]: “reduced efficacy”.

Regarding `CC1(CC(O)(CNc2cccc3cnccc23)C(F)(F)F)CCCc2ccccc21` (single isomer, unassigned) [Example 3-D1E2, 1,1,1-Trifluoro-3-(5-isoguinolinylamino)-2-[(1-methyl-1,2,3,4-tetrahydro-1-naphthalenyl)methyl]-2-propanol], the IC50 in the assay on NFkB activity is under 31.6 nM. The “efficacy … compared to the NFkB assay” value in assay [1] is “reduced efficacy”. On to `CC1(CC(O)(CNc2cccc3cnccc23)C(F)(F)F)CCCc2ccccc21` (single isomer, unassigned) [Example 3-D2E1, 1,1,1-Trifluoro-3-(5-isoguinolinylamino)-2-[(1-methyl-1,2,3,4-tetrahydro-1-naphthalenyl)methyl]-2-propanol], for which the IC50 at glucocorticoid receptor is under 100 nM. For the same compound, the “efficacy … compared to the NFkB assay” value in assay [1] is listed as “reduced efficacy”. As to `CCC1(CC(O)(CNc2cccc3cnccc23)C(F)(F)F)CCCc2ccccc21` (single isomer, unassigned) [Example 4-D1, 3-(1-Ethyl-1,2,3,4-tetrahydro-1-naphthalenyl)-1,1,1-trifluoro-2-[(5-isoquinolinylamino)methyl]-2-propanol], on glucocorticoid receptor, the IC50 was under 100 nM. In addition, in assay [1], the “efficacy … compared to the NFkB assay” value is on record as “reduced efficacy”. For the compound `CCC1(CC(O)(CNc2cccc3cnccc23)C(F)(F)F)CCCc2ccccc21` (single isomer, unassigned) [Example 4-D1E2, 3-(1-Ethyl-1,2,3,4-tetrahydro-1-naphthalenyl)-1,1,1-trifluoro-2-[(5-isoquinolinylamino)methyl]-2-propanol], the IC50 with NFkB activity is under 31.6 nM. The “efficacy … compared to the NFkB assay” value in assay [1] is “reduced efficacy”. Take `CCC1(CC(O)(CNc2cccc3nc(C)ccc23)C(F)(F)F)CCCc2ccccc21` (single isomer, unassigned) [Example 5-D1, 3-(1-Ethyl-1,2,3,4-tetrahydro-1-naphthalenyl)-1,1,1-trifluoro-2-[[(2-methyl-5-quinolinyl)amino]methyl]-2-propanol]: the IC50 is under 31.6 nM with NFkB activity and under 100 nM at glucocorticoid receptor. The “efficacy … compared to the NFkB assay” value in assay [1] was “reduced efficacy”.

In the case of `CCC1(CC(O)(CNc2cccc3nc(C)ccc23)C(F)(F)F)CCCc2ccccc21` (single isomer, unassigned) [Example 5-D1E1, 3-(1-Ethyl-1,2,3,4-tetrahydro-1-naphthalenyl)-1,1,1-trifluoro-2-[[(2-methyl-5-quinolinyl)amino]methyl]-2-propanol], the “efficacy … compared to the NFkB assay” value in assay [1] is listed as “reduced efficacy”. As to `CCC1(CC(O)(CNc2cccc3nc(C)ccc23)C(F)(F)F)CCCc2ccccc21` (single isomer, unassigned) [Example 5-D2, 3-(1-Ethyl-1,2,3,4-tetrahydro-1-naphthalenyl)-1,1,1-trifluoro-2-[[(2-methyl-5-quinolinyl)amino]methyl]-2-propanol], in assay [1], the “efficacy … compared to the NFkB assay” value was “reduced efficacy”. Regarding `CCC1(CC(O)(CNc2cccc3nc(C)ccc23)C(F)(F)F)CCCc2ccccc21` (single isomer, unassigned) [Example 5-D2E1, 3-(1-Ethyl-1,2,3,4-tetrahydro-1-naphthalenyl)-1,1,1-trifluoro-2-[[(2-methyl-5-quinolinyl)amino]methyl]-2-propanol], the “efficacy … compared to the NFkB assay” value in assay [1] is “reduced efficacy”. For `CC1(CC(O)(CNc2cccc3ncccc23)C(F)(F)F)CCCc2ccccc21` (stereo not shown) [Example 1-D1, 1,1,1-Trifluoro-3-(1-methyl-1,2,3,4-tetrahydro-1-naphthalenyl)-2-[(5-guinolinylamino)methyl]-2-propanol], the IC50 in the assay on NFkB activity was under 31.6 nM; at glucocorticoid receptor, under 100 nM. Also, in assay [1], the “efficacy … compared to the NFkB assay” value is reported as “reduced efficacy”.

Regarding `CC1(CC(O)(CNc2cccc3cnccc23)C(F)(F)F)CCCc2ccccc21` (stereo not shown) [Example 3-D1, 1,1,1-Trifluoro-3-(5-isoguinolinylamino)-2-[(1-methyl-1,2,3,4-tetrahydro-1-naphthalenyl)methyl]-2-propanol], the IC50 was under 31.6 nM with NFkB activity and under 100 nM at glucocorticoid receptor. Besides, the “efficacy … compared to the NFkB assay” value in assay [1] is given as “reduced efficacy”. Regarding `CC1(CC(O)(CNc2cccc3cnccc23)C(F)(F)F)CCCc2ccccc21` (stereo not shown) [Example 3-D2, 1,1,1-Trifluoro-3-(5-isoguinolinylamino)-2-[(1-methyl-1,2,3,4-tetrahydro-1-naphthalenyl)methyl]-2-propanol], the “efficacy … compared to the NFkB assay” value in assay [1] is “reduced efficacy”.

The record behind these values is patent US7902224B2, “Tetrahydro-naphthalene derivatives as glucocorticoid receptor modulators” (Glaxo Group Limited, priority 2004, dated 2011).
